Tested on: anti-OGP IgG
Assay: ELISA reactivity of peptides with the anti-OGP IgG preparation
Assay type: binding, rabbits
Settings: polyclonal rabbit anti-OGP IgG fraction
Method: The wells were washed with 200 µl PBS (x3). Blocking of unreacted sites on the plastic well bottom was carried out by incubation of 1% gelatine in PBS at 37°C for 1 h. Rinsing with PBS (3 x 200 µl) was followed by 2 h incubation with the anti-OGP IgG preparation (diluted 1:300 with reference to the original rabbit anti-serum) at room temperature. This was followed by rinsing with (i) 3% BSA in PBS (1 x 200 µl); (ii) 0.02% Tween 20 in PBS (1 x 200 µl); and (iii) PBS (3 x 200 µl). The wells were then incubated with 100 µl of 1:1000 dilution in PBS of goat alkaline phosphatase conjugated anti-rabbit IgG for 2 h at room temperature. Rinsing with (i) 0.02% Tween in PBS (1 x 200 µl); (ii) PBS (2 x 200 µl); (iii) bidistilled water (3 x 200 µl) preceded a 20 min incubation at room temperature with alkaline phosphatase buffer solution: p-nitrophenyl phosphate 1 mg/ml in substrate buffer (diethanolamine buffer pH 9.6). Light absorbance at 450 nm was then recorded using an ELISA reader.

parathyroid hormone (PTH) (1-34) [PTH (1-34)]
binding to / reaction with anti-OGP IgG in ELISA: failed to react

From EP0572122A2, “C-terminal modified osteogenic growth polypeptides” (YISSUM RESEARCH AND DEVELOPMENT COMPANY OF THE HEBREW …, priority 1992, dated 1993)
